The CheMixHub viscosity set

Assay: xn = mol fraction of the nth substance listed

CC(C)(C)N + Cc1ccccc1
303.15 K, 101 kPa
Details	viscosity [mPa·s]
x2 = 0.1549	0.4385
x2 = 0.2226	0.4405
x2 = 0.3039	0.4431
x2 = 0.3981	0.4489
x2 = 0.522	0.458
x2 = 0.6221	0.4693
x2 = 0.7184	0.4824
x2 = 0.8751	0.5067

C=Cc1ccccc1 + CCCO
298.15 K, 101.33 kPa
Details	viscosity [mPa·s]
x1 = 0.0999	1.594
x1 = 0.1997	1.326
x1 = 0.298	1.153
x1 = 0.3952	1.011
x1 = 0.4985	0.892
x1 = 0.6022	0.815
x1 = 0.6984	0.762
x1 = 0.7985	0.727
x1 = 0.9019	0.707

CCC(C)(C)OC + CCCCCO
298.15 K, 101.33 kPa
Details	viscosity [mPa·s]
x1 = 0.0219	3.286
x1 = 0.0388	3.133
x1 = 0.0752	2.891
x1 = 0.1143	2.511
x1 = 0.1631	2.192
x1 = 0.211	1.93
x1 = 0.2721	1.651
x1 = 0.3347	1.417
x1 = 0.3464	1.374
x1 = 0.385	1.26
x1 = 0.4353	1.125
x1 = 0.4908	1.003
x1 = 0.5534	0.886
x1 = 0.6141	0.789
x1 = 0.6759	0.71
x1 = 0.7266	0.652
x1 = 0.8027	0.579
x1 = 0.8732	0.521
x1 = 0.9484	0.469
x2 = 0.0064	0.441

CCC(C)(C)OC + CCCCCC
viscosity [mPa·s], 100 kPa
Details	x1 = 0.0498	x1 = 0.1632	x1 = 0.2584	x1 = 0.3742	x1 = 0.4276	x1 = 0.5464	x1 = 0.6121	x1 = 0.7457	x1 = 0.8625	x1 = 0.9488
293.15 K	0.317	0.325	0.332	0.343	0.349	0.363	0.372	0.391	0.412	0.429
303.15 K	0.287	0.293	0.3	0.31	0.315	0.33	0.339	0.362	0.384	0.407
313.15 K	0.254	0.259	0.266	0.277	0.282	0.296	0.304	0.323	0.343	0.358

CCCCCCCCO + CCCO
viscosity [mPa·s], 101 kPa
Details	298.15 K	308.15 K	318.15 K
x2 = 0.05	7.025	4.92	3.71
x2 = 0.1	6.694	4.637	3.555
x2 = 0.15	6.37	4.394	3.406
x2 = 0.2	6.052	4.183	3.261
x2 = 0.25	5.742	3.995	3.12
x2 = 0.3	5.438	3.824	2.982
x2 = 0.35	5.141	3.663	2.847
x2 = 0.4	4.851	3.507	2.713
x2 = 0.45	4.568	3.353	2.581
x2 = 0.5	4.291	3.197	2.45
x2 = 0.55	4.021	3.036	2.32
x2 = 0.6	3.758	2.869	2.191
x2 = 0.65	3.501	2.696	2.063
x2 = 0.7	3.249	2.517	1.936
x2 = 0.75	3.003	2.333	1.811
x2 = 0.8	2.762	2.147	1.687
x2 = 0.85	2.526	1.962	1.565
x2 = 0.9	2.294	1.782	1.445
x2 = 0.95	2.065	1.612	1.329

BrC(Br)Br + Cc1ccccc1
viscosity [mPa·s], 101 kPa
Details	x1 = 0.1032	x1 = 0.1993	x1 = 0.2989	x1 = 0.3999	x1 = 0.4985	x1 = 0.5956	x1 = 0.6977	x1 = 0.7959	x1 = 0.8985
298.15 K	0.6593	0.7557	0.8686	0.9945	1.136	1.287	1.449	1.622	1.801
303.15 K	0.6236	0.7133	0.817	0.936	1.068	1.207	1.358	1.519	1.688
308.15 K	0.5877	0.6722	0.7592	0.8765	1.001	1.131	1.273	1.426	1.583
313.15 K	0.5544	0.6324	0.7238	0.8262	0.939	1.061	1.194	1.335	1.483

CCN(CC)CCO.Cl + OCC(O)CO
101 kPa, x1 = 0.333
Details	viscosity [mPa·s]
296.97 K	433.4
298.15 K	513.1
302.02 K	339.9
303.15 K	351.5
306.82 K	263.5
308.15 K	251.3
312.13 K	195.5
313.15 K	182.9
317.31 K	153
318.15 K	138
322.61 K	110.5
323.15 K	104.2

CCCCCCCCO + CCCCCCC
viscosity [mPa·s], 101.33 kPa
Details	298.15 K	308.15 K
x1 = 0.0448	0.4411	0.3932
x1 = 0.0922	0.4999	0.4375
x1 = 0.1826	0.6375	0.5457
x1 = 0.278	0.8198	0.6942
x1 = 0.3705	1.072	0.8964
x1 = 0.469	1.464	1.149
x1 = 0.5664	1.902	1.594
x1 = 0.6697	2.7	2.213
x1 = 0.7784	3.885	3.021
x1 = 0.8336	4.545	3.466
x1 = 0.8844	5.124	3.885
x1 = 0.9381	6.024	4.399

CCCCCCCCO + CCOC(C)=O
viscosity [mPa·s]
Details	298.15 K	303.15 K	308.15 K	313.15 K
101 kPa, x1 = 0.0646	0.512	0.484	0.455	0.429
101 kPa, x1 = 0.1344	0.629	0.589	0.55	0.513
101 kPa, x1 = 0.2103	0.783	0.727	0.673	0.623
101 kPa, x1 = 0.2928	0.991	0.911	0.834	0.766
101 kPa, x1 = 0.3832	1.279	1.164	1.054	0.958
101 kPa, x1 = 0.4823	1.689	1.519	1.36	1.223
101 kPa, x1 = 0.5917	2.298	–	1.806	1.605
101 kPa, x1 = 0.713	3.246	2.844	2.482	2.179
101 kPa, x1 = 0.8483	4.801	4.144	3.563	3.083
101.33 kPa, x2 = 0.141	4.383	3.809	3.324	–
101.33 kPa, x2 = 0.2701	2.825	2.512	2.215	–
101.33 kPa, x2 = 0.3878	1.985	1.777	1.596	–
101.33 kPa, x2 = 0.4964	1.449	1.292	1.152	–
101.33 kPa, x2 = 0.5965	1.088	0.992	0.907	–
101.33 kPa, x2 = 0.6891	0.841	0.798	0.724	–
101.33 kPa, x2 = 0.7641	0.712	0.653	0.606	–
101.33 kPa, x2 = 0.8552	0.585	0.542	0.51	–
101.33 kPa, x2 = 0.9301	0.496	0.468	0.446	–

CCCCCCCCO + CCCCO
viscosity [mPa·s], 101 kPa
Details	298.15 K	308.15 K	318.15 K
x2 = 0.05	7.06	5.06	3.734
x2 = 0.1	6.764	4.867	3.602
x2 = 0.15	6.475	4.678	3.472
x2 = 0.2	6.193	4.492	3.345
x2 = 0.25	5.917	4.309	3.22
x2 = 0.3	5.646	4.129	3.097
x2 = 0.35	5.382	3.953	2.975
x2 = 0.4	5.123	3.779	2.855
x2 = 0.45	4.87	3.608	2.736
x2 = 0.5	4.622	3.44	2.618
x2 = 0.55	4.38	3.275	2.502
x2 = 0.6	4.145	3.113	2.388
x2 = 0.65	3.915	2.955	2.275
x2 = 0.7	3.692	2.8	2.164
x2 = 0.75	3.476	2.649	2.055
x2 = 0.8	3.268	2.502	1.948
x2 = 0.85	3.067	2.36	1.845
x2 = 0.9	2.875	2.223	1.744
x2 = 0.95	2.693	2.092	1.648

C=Cc1ccccc1 + CCO
viscosity [mPa·s], 101.33 kPa
Details	x1 = 0.0997	x1 = 0.1994	x1 = 0.3013	x1 = 0.3987	x1 = 0.5004	x1 = 0.6011	x1 = 0.7001	x1 = 0.7976	x1 = 0.8989
298.15 K	1.01	0.932	0.849	0.798	0.764	0.747	0.737	0.731	0.72
303.15 K	0.93	0.861	0.777	0.735	0.711	0.701	0.693	0.688	0.679
308.15 K	0.848	0.786	0.711	0.681	0.661	0.652	0.645	0.64	0.634

CC(=O)c1ccc(Cl)cc1 + CNC(C)=O
308.15 K, 101 kPa
Details	viscosity [mPa·s]
x1 = 0.0644	3.273
x1 = 0.1311	3.223
x1 = 0.2036	3.141
x1 = 0.2825	3.035
x1 = 0.3696	2.906
x1 = 0.4664	2.765
x1 = 0.5774	2.604
x1 = 0.7003	2.452
x1 = 0.8405	2.331
